Results reported in ChEMBL document CHEMBL1141452, “Advances in development of dopaminergic aporphinoids” (J Med Chem, 2007).

Biological target: D(1A) dopamine receptor (Rattus norvegicus, UniProt P18901)
Test: Displacement of [3H]SCH-23390 from rat dopamine D1 receptor

D(1A) dopamine receptor, sequence (P18901 whole entry): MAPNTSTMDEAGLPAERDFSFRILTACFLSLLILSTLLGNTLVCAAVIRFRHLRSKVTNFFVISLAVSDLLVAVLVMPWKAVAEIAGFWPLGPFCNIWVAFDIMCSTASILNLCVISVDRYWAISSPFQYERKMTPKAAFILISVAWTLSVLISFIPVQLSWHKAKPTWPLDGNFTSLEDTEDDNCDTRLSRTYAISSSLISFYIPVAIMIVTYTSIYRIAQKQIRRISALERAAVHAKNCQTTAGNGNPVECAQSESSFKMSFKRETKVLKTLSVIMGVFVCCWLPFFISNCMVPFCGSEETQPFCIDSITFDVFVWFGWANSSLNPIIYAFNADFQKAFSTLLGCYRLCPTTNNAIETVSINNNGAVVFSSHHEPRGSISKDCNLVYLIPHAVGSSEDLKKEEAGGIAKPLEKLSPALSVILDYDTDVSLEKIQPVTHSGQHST

**Q.** How did the Ki turn out when `CCCN1CCc2cccc3c2[C@H]1Cc1cccc(OC(C)=O)c1-3` was run?
**A.** > 10 µM

**Q.** With `COc1ccc2c(c1O)Oc1c(OC)ccc3c1[C@H](C2)N(C)CC3` [SARCOCAPNIDINE] as the compound, how does the IC50 read?
**A.** 50 µM

**Q.** How did the IC50 turn out when `COc1c(O)c2c3c(c1OC)CCN[C@@H]3Cc1ccccc1-2` [ISOPILINE] was run?
**A.** 9.8 µM

**Q.** For `CN1CCc2cc(O)cc3c2C1Cc1ccccc1C3` (stereo not drawn), which Ki is on record?
**A.** 6.4 µM

**Q.** For `COc1cc2c(cc1OC)-c1c(OC)c(OC)c(Br)c3c1[C@H](C2)N(C)CC3`, which Ki is on record?
**A.** 0.52 µM

**Q.** How did the Ki turn out when `CCCN1CCc2cc(OC)cc3c2C1Cc1ccccc1C3` (stereo not drawn) was run?
**A.** 11.6 µM

**Q.** `CN1CCc2cc(O)cc3c2C1Cc1ccccc1O3` (stereo not drawn) was tested. Which Ki did it give?
**A.** 3 µM

**Q.** Which Ki does the source give for `CN1CCc2cc(O)c(O)c3c2C1Cc1ccccc1C3` (stereo not drawn) here?
**A.** 6.1 µM

**Q.** For `CCCCC(=O)Oc1cccc2c1-c1cccc3c1[C@@H](C2)N(CCC)CC3`, which Ki is on record?
**A.** > 20 µM

**Q.** How did the Ki turn out when `CCN1CCc2cc(O)cc3c2C1Cc1ccccc1C3` (stereo not drawn) was run?
**A.** > 20 µM

**Q.** Which Ki does the source give for `COc1cc2c3c(c1)Cc1ccccc1CC3N(C)CC2` (stereo not drawn) here?
**A.** 8.6 µM

**Q.** `CCCN1CCc2cccc3c2C1Cc1cc(O)ccc1O3` (stereo not drawn) was tested. Which Ki did it give?
**A.** > 10 µM

**Q.** For `CCCCCCCCCCCCCCCCCCCCCC(=O)Oc1cccc2c1-c1cccc3c1[C@@H](C2)N(CCC)CC3`, which Ki is on record?
**A.** > 10 µM

**Q.** For `CCCN1CCc2cc(O)c(O)c3c2C1Cc1ccccc1C3` (stereo not drawn), which Ki is on record?
**A.** 22.3 µM

**Q.** With `COc1c(O)c2c3c(nccc3c1OC)C(C)(C)c1cc(O)ccc1-2` [MELOSMINE] as the compound, how does the IC50 read?
**A.** 12.5 µM

**Q.** How did the Ki turn out when `Oc1cc2c3c(c1)Cc1ccccc1CC3NCC2` (stereo not drawn) was run?
**A.** 3.7 µM

**Q.** For `COc1cc2c(cc1OC)-c1c(OC)c(O)c(I)c3c1[C@H](C2)N(C)CC3`, which Ki is on record?
**A.** 0.006 µM

**Q.** How did the Ki turn out when `COc1cc2c3c(c1OC)Cc1ccccc1CC3N(Cc1ccccc1)CC2` (stereo not drawn) was run?
**A.** > 60 µM

**Q.** With `CN1CCc2cc(-c3ccc(O)cc3)cc3c2[C@H]1Cc1cccc(O)c1-3` as the compound, how does the Ki read?
**A.** 0.17 µM

**Q.** Which Ki does the source give for `CCCN1CCc2cccc3c2[C@H]1Cc1ccc(C)c(O)c1-3` here?
**A.** 2 µM

**Q.** `COc1cc2c(cc1O)C[C@H]1c3c(c(Br)c(O)c(OC)c3-2)CCN1C` [3-BROMOBOLDINE] was tested. Which Ki did it give?
**A.** 0.049 µM

**Q.** How did the Ki turn out when `CCN1CCc2cc(O)c(O)c3c2C1Cc1ccccc1C3` (stereo not drawn) was run?
**A.** 8.3 µM

**Q.** For `COc1cc2c(cc1O)Oc1c(O)ccc3c1[C@H](C2)N(C)CC3` [CELTISINE], which IC50 is on record?
**A.** 0.06 µM

**Q.** How did the IC50 turn out when `Oc1ccc2c(c1)C[C@H]1NCCc3cc4c(c-2c31)OCO4` [ANOLOBINE] was run?
**A.** 36 µM

**Q.** Which Ki does the source give for `COc1cc2c3c(c1)Cc1ccccc1CC3NCC2` (stereo not drawn) here?
**A.** 6.3 µM

**Q.** For `c1ccc2c(c1)C[C@H]1NCCc3cc4c(c-2c31)OCO4` [ANONAINE], which IC50 is on record?
**A.** 68 µM

**Q.** With `COc1cc2c(cc1O)C[C@H]1c3c(c(I)c(O)c(OC)c3-2)CCN1C` as the compound, how does the Ki read?
**A.** 0.002 µM

Biological target: D(2) dopamine receptor (Rattus norvegicus, UniProt P61169)
Sequence (P61169 whole entry): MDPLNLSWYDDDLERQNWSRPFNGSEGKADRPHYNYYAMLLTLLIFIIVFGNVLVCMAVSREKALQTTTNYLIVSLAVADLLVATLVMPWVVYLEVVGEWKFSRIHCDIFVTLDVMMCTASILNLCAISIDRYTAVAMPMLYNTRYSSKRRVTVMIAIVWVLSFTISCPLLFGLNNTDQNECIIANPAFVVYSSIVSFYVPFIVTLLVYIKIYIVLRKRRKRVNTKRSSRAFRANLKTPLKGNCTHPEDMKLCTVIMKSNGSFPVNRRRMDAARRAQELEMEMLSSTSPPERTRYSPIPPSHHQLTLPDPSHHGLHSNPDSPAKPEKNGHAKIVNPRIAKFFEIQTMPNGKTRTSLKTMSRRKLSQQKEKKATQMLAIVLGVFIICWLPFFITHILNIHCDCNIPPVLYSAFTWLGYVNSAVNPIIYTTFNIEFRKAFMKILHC
Test: Displacement of [3H]raclopride from rat dopamine D2 receptor

**Q.** `CCCN1CCc2cc(SC)cc3c2[C@H]1Cc1ccc(O)c(O)c1-3` was tested. Which Ki did it give?
**A.** 0.0037 µM

**Q.** How did the Ki turn out when `CN1CCc2ccc3c4c2[C@H]1Cc1cccc(c1-4)[C@]3(C)O` was run?
**A.** 0.026 µM

**Q.** Which Ki does the source give for `CN1CCc2ccc3c4c2[C@H]1Cc1cccc(c1-4)[C@@H]3O` here?
**A.** 0.21 µM

**Q.** For `CCc1cccc2c1-c1cccc3c1[C@@H](C2)N(C)CC3`, which Ki is on record?
**A.** 0.079 µM

**Q.** For `CCCN1CCc2cc(O)cc3c2[C@H]1Cc1ccc(O)c(O)c1-3`, which IC50 is on record?
**A.** 7e-05 µM

**Q.** How did the IC50 turn out when `COc1ccc2c(c1O)Oc1c(OC)ccc3c1[C@H](C2)N(C)CC3` [SARCOCAPNIDINE] was run?
**A.** 2 µM

**Q.** With `COc1c(O)c2c3c(c1OC)CCN[C@@H]3Cc1ccccc1-2` [ISOPILINE] as the compound, how does the IC50 read?
**A.** 30 µM

**Q.** With `CN1CCc2cc(O)cc3c2C1Cc1ccccc1C3` (stereo not drawn) as the compound, how does the Ki read?
**A.** 8.9 µM

**Q.** How did the Ki turn out when `Cc1ccc2c(c1O)-c1cccc3c1[C@@H](C2)N(C)CC3` was run?
**A.** 1.07 µM

**Q.** `COc1cc2c(cc1OC)-c1c(OC)c(OC)c(Br)c3c1[C@H](C2)N(C)CC3` was tested. Which Ki did it give?
**A.** 2.4 µM

**Q.** `CCCN1CCc2cc(OC)cc3c2C1Cc1ccccc1C3` (stereo not drawn) was tested. Which Ki did it give?
**A.** 14 µM

**Q.** With `CCN1CCc2cccc3c2C1Cc1cc(O)ccc1O3` (stereo not drawn) as the compound, how does the Ki read?
**A.** > 10 µM

**Q.** With `CN1CCc2cc(O)cc3c2C1Cc1ccccc1O3` (stereo not drawn) as the compound, how does the Ki read?
**A.** 0.27 µM

**Q.** For `CN1CCc2cc(O)c(O)c3c2C1Cc1ccccc1C3` (stereo not drawn), which Ki is on record?
**A.** 15 µM

**Q.** With `CCCCC(=O)Oc1cccc2c1-c1cccc3c1[C@@H](C2)N(CCC)CC3` as the compound, how does the Ki read?
**A.** 0.034 µM

**Q.** Which Ki does the source give for `CCN1CCc2cc(O)cc3c2C1Cc1ccccc1C3` (stereo not drawn) here?
**A.** 15 µM

**Q.** For `CN1CCc2ccc3c4c2[C@H]1Cc1cccc(c1-4)[C@H]3O`, which Ki is on record?
**A.** 0.024 µM

**Q.** How did the Ki turn out when `COc1cc2c3c(c1)Cc1ccccc1CC3N(C)CC2` (stereo not drawn) was run?
**A.** 8.2 µM

**Q.** With `CCCN1CCc2cc(OC)cc3c2[C@H]1Cc1ccc(O)c(O)c1-3` as the compound, how does the IC50 read?
**A.** 0.0102 µM

**Q.** How did the Ki turn out when `CCCN1CCc2cccc3c2C1Cc1cc(O)ccc1O3` (stereo not drawn) was run?
**A.** > 10 µM

**Q.** `CCCCCCCCCCCCCCCCCCCCCC(=O)Oc1cccc2c1-c1cccc3c1[C@@H](C2)N(CCC)CC3` was tested. Which Ki did it give?
**A.** 0.18 µM

**Q.** Which Ki does the source give for `CCCN1CCc2cc(O)c(O)c3c2C1Cc1ccccc1C3` (stereo not drawn) here?
**A.** 6.7 µM

**Q.** How did the IC50 turn out when `COc1c(O)c2c3c(nccc3c1OC)C(C)(C)c1cc(O)ccc1-2` [MELOSMINE] was run?
**A.** 80 µM

**Q.** How did the Ki turn out when `Oc1cc2c3c(c1)Cc1ccccc1CC3NCC2` (stereo not drawn) was run?
**A.** 20 µM

**Q.** For `COc1cc2c(cc1OC)-c1c(OC)c(O)c(I)c3c1[C@H](C2)N(C)CC3`, which Ki is on record?
**A.** 0.83 µM

**Q.** `COc1cc2c3c(c1OC)Cc1ccccc1CC3N(Cc1ccccc1)CC2` (stereo not drawn) was tested. Which Ki did it give?
**A.** 4.9 µM

**Q.** How did the Ki turn out when `CN1CCc2cc(-c3ccc(O)cc3)cc3c2[C@H]1Cc1cccc(O)c1-3` was run?
**A.** 0.0038 µM

**Q.** How did the Ki turn out when `CCCN1CCc2cccc3c2[C@H]1Cc1ccc(C)c(O)c1-3` was run?
**A.** 0.25 µM

**Q.** For `COc1cc2c(cc1O)C[C@H]1c3c(c(Br)c(O)c(OC)c3-2)CCN1C` [3-BROMOBOLDINE], which Ki is on record?
**A.** 0.74 µM

**Q.** `CCN1CCc2cc(O)c(O)c3c2C1Cc1ccccc1C3` (stereo not drawn) was tested. Which Ki did it give?
**A.** 16 µM

**Q.** `COc1cc2c(cc1O)Oc1c(O)ccc3c1[C@H](C2)N(C)CC3` [CELTISINE] was tested. Which IC50 did it give?
**A.** 0.03 µM

**Q.** With `Oc1ccc2c(c1)C[C@H]1NCCc3cc4c(c-2c31)OCO4` [ANOLOBINE] as the compound, how does the IC50 read?
**A.** 15 µM

**Q.** For `COc1cc2c3c(c1)Cc1ccccc1CC3NCC2` (stereo not drawn), which Ki is on record?
**A.** 19 µM

**Q.** Which IC50 does the source give for `c1ccc2c(c1)C[C@H]1NCCc3cc4c(c-2c31)OCO4` [ANONAINE] here?
**A.** 19 µM

**Q.** Which Ki does the source give for `Oc1cccc2c1-c1cccc3c1[C@@H](C2)NCC3` here?
**A.** 1 µM

**Q.** Which Ki does the source give for `COc1cc2c(cc1O)C[C@H]1c3c(c(I)c(O)c(OC)c3-2)CCN1C` here?
**A.** 0.068 µM

Biological target: Sodium-dependent dopamine transporter (Rattus norvegicus, UniProt P23977)
Sequence (P23977 whole entry): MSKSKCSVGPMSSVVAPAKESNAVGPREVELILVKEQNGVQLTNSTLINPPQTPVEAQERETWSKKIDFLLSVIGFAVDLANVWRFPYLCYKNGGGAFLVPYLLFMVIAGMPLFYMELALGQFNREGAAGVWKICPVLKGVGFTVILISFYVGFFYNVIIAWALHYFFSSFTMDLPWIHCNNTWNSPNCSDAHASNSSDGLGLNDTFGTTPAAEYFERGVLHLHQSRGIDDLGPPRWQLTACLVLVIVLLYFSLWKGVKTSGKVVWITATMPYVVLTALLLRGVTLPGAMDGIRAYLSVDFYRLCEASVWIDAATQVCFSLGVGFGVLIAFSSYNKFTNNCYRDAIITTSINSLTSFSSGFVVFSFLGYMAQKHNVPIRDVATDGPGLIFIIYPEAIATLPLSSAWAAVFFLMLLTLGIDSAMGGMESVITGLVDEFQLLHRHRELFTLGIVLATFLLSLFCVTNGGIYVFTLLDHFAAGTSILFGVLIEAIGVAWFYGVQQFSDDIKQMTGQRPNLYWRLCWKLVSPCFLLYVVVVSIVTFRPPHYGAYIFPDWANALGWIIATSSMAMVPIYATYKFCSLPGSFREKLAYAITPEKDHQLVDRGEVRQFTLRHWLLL
Test: Displacement of [3H]DA from rat DAT

**Q.** Which IC50 does the source give for `COc1c(O)c2c3c(nccc3c1OC)C(C)(C)c1cc(O)ccc1-2` [MELOSMINE] here?
**A.** 24.6 µM

Biological target: 5-hydroxytryptamine receptor 7 (Rattus norvegicus) (UniProt P32305)
Sequence (P32305 whole entry, looked up): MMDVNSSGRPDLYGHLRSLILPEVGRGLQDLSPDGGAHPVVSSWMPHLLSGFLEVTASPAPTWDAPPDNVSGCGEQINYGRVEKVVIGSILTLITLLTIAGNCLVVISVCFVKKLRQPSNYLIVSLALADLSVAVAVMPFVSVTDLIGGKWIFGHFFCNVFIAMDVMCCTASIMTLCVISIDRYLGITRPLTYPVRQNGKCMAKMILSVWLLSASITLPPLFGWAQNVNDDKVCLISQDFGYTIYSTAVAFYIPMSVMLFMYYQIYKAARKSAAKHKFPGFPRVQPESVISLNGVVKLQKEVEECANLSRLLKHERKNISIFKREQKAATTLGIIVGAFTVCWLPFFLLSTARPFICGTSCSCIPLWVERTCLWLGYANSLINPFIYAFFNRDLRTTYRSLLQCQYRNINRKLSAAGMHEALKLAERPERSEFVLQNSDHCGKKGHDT
Test: Displacement of [3H]5-HT from rat 5-HT7 receptor

**Q.** For `CN1CCc2ccc3c4c2[C@H]1Cc1cccc(c1-4)[C@]3(C)O`, which Ki is on record?
**A.** 0.0043 µM

**Q.** How did the Ki turn out when `CN1CCc2ccc3c4c2[C@H]1Cc1cccc(c1-4)[C@@H]3O` was run?
**A.** 0.1 µM

**Q.** How did the Ki turn out when `Cc1cccc(C#N)c1-c1cccc2c1-c1cccc3c1[C@@H](C2)N(C)CC3` (stereo in doubt; 58) was run?
**A.** 0.0038 µM

**Q.** For `CN1CCc2ccc3c4c2[C@H]1Cc1cccc(c1-4)[C@H]3O`, which Ki is on record?
**A.** 0.014 µM
